Results reported in publication PMC3489161 (Pharmaceutical research, 2011).
pIC50: −log10 of the molar value. “And” between values parts separate entries of the source, which are not always exact repeats. Equal values may be shown once. “Also recorded” adds a separate entry of the source.

What was measured:
[1] = 14C-lapatinib distribution after intravenous dosing; assay type: in vivo, mice; conditions: 10 mg/kg i.v., 30 min
[2] = 14C-lapatinib radiochemical integrity in plasma and tissues by HPLC; assay type: in vivo, mice
[3] = test system: 231-BR-HER2 lapatinib-treated lines and 231-BR-HER2 non-treated lines; assay: Cell viability; assay type: cell-based, human; conditions: 8 or 10 μM lapatinib, 72 hours
[4] = test system: 231-BR-HER2 lapatinib-treated lines and 231-BR-HER2 non-treated lines; assay: Clonogenic assay of ex vivo cultures; assay type: cell-based, human; conditions: 4 μM lapatinib, stained on day 12
HER2 = assay: Western blot of HER2 expression in ex vivo cultures; assay type: cell-based, human; conditions: 100 mg/kg p.o. twice daily for 24 days
[5] = female, NuNu, mouse, in vivo
[6] = due to active efflux transport at the BBB; cited from earlier work
231-BR-HER2 = conditions: read-out: IC50 for inhibition of 231-BR-HER2 proliferation in vitro; cited from earlier work
[7] = test system: brain metastases of HER2+ breast cancer; conditions: monotherapy; cited from earlier work
HER2+ brain metastases = conditions: cited from earlier work
[8] = mice; cited from earlier work
[9] = cited from earlier work

CS(=O)(=O)CCNCc1ccc(-c2ccc3ncnc(Nc4ccc(OCc5cccc(F)c5)c(Cl)c4)c3c2)o1 [lapatinib, N-{3-chloro-4-[(3-fluorobenzyl)oxy]phenyl}-6-[5-({[2-(methylsulfonyl)ethyl]amino}methyl)-2-furyl]-4-quinazolinamine]
Average brain metastasis concentration less than in peripheral tissues [1]: 1-2 orders of magnitude
Plasma 14C tracer confirmed as intact 14C-lapatinib ([2]; 30 min after 10 mg/kg i.v.): > 98%
Tracer intact in plasma and tissues by HPLC ([2]; 2 hours after oral administration, 100 mg/kg): > 92%
Sensitivity of ex vivo cell lines to lapatinib, viability by MTT [3]: sensitive to lapatinib inhibition; also recorded: remain sensitive to lapatinib in vitro
Inhibitory effect in clonogenic assays [4]: comparable between lapatinib- and vehicle-treated cultures
HER2 expression throughout in vivo treatment and ex vivo culture (HER2): maintained
Concentration in some brain metastases as % of that in peripheral lesions [5]: ~50%
Share of brain metastases with elevated 14C-lapatinib delivery [5]: > 85%
Calculated % dose to brain ([5]; po, 100 mg/kg): 0.0025%
Brain uptake as % of plasma [6]: < 10%
pIC50 (231-BR-HER2): 5.10
Patients achieving an objective response [7]: 6%
Patients experiencing a >20% reduction in lesion volume [7]: 21%
Reduction in formation/number of large brain metastases (HER2+ brain metastases; mice, same dose and tumor model): ~50% and 50-53%
Number of micrometastases (HER2+ brain metastases; mice): no change
Extent of phosphorylated HER2 staining within HER2+ brain metastases (HER2+ brain metastases; treatment initiated early): decreased
Plasma half-life [8]: 4 to 6 h
Volume of distribution [9]: 9.5 L/kg
